Assay results as given in ChEMBL document CHEMBL3132826, “Investigation of a tetrahydroisoquinoline scaffold as dual-action steroid sulfatase inhibitors generated by parallel solid-phase synthesis” (Medchemcomm, 2013).

Columns and labels:
MCF7 [1] = assay: Estrogenic activity in human MCF7 cells assessed as cell proliferation at 0.01 uM by MTS assay relative to basal level; format: ADME, cell-based; conditions: mcf7, 0.01 µM
MCF7 [2] = assay: Estrogenic activity in human MCF7 cells assessed as cell proliferation at 1 uM by MTS assay relative to basal level; format: ADME, cell-based; conditions: mcf7, 1 µM
MCF7 [3] = assay: Estrogenic activity in human MCF7 cells assessed as cell proliferation at 0.1 uM by MTS assay relative to basal level; format: ADME, cell-based; conditions: mcf7, 0.1 µM
[4] = Estrogenic activity in human Saos2 cells assessed as increase in alkaline phosphatase activity at 1 nM; format: ADME, cell-based; conditions: saos-2, 0.001 µM
[5] = Estrogenic activity in human Saos2 cells assessed as cell proliferation at 1 uM; format: ADME, cell-based; conditions: saos-2, 1 µM
[6] = biological target: T1, Steryl-sulfatase (Homo sapiens) (UniProt P08842); assay: Inhibition of STS (unknown origin) expressed in HEK-293 cells assessed as transformation of [3H]-E1S into E1 at 0.1 uM by […]; format: cell-based; conditions: HEK293
T1 sequence (whole entry): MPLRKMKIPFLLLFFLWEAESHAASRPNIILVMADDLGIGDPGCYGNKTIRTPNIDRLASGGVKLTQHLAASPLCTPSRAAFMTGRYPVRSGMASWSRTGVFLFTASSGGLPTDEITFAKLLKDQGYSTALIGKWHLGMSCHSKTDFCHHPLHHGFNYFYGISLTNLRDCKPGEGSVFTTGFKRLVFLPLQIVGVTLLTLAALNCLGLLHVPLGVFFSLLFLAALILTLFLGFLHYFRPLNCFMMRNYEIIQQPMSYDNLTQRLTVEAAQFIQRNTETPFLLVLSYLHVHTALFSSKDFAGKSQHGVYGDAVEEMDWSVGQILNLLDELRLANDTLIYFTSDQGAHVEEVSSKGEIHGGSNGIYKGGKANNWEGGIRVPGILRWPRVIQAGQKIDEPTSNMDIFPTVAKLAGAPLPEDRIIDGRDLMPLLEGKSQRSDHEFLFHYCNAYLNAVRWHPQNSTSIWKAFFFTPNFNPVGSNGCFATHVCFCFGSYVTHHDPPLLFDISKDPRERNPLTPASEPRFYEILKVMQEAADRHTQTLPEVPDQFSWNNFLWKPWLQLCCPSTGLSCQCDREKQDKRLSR

[7] = Lipophilicity, log P of the compound; format: physicochemical; conditions: octanol/water
[8] = biological target: T1, Steryl-sulfatase (Homo sapiens); assay: Inhibition of STS (unknown origin) expressed in HEK-293 cells assessed as transformation of [3H]-E1S into E1 at 1 uM by […]; format: cell-based; conditions: HEK293
MCF7 [9] = assay: Estrogenic activity in human MCF7 cells assessed as cell proliferation at 0.1 nM by MTS assay relative to basal level; format: ADME, cell-based; conditions: mcf7, 0.0001 µM

Activity [4] [%] | inhibition [6] [%] | logP [7] | inhibition [8] [%] | Compound | Activity (MCF7 [1]) [%] | Activity (MCF7 [2]) [%] | Activity (MCF7 [3]) [%] | Activity [5] | Activity (MCF7 [9]) [%]
 |  |  |  | CN(C)CCN(CCN(C)C)c1cccc(C(=O)N2CCc3ccc(O)cc3C2)c1 | 0 | 84.1 | 14.6 |  | 
 |  |  |  | CN(C)CCCN(Cc1ccccc1)c1ccc(C(=O)N2CCc3ccc(O)cc3C2)cc1 | 19.4 | 25.9 | 18.3 |  | 
 |  |  |  | O=C(c1cccc(N(CCCO)Cc2ccccc2)c1)N1CCc2ccc(O)cc2C1 | 0 | 94.2 | 14.2 |  | 
133 |  |  |  | O=C(c1ccc(N2CCc3ccccc3C2)cc1)N1CCc2ccc(O)cc2C1 | 0 | 6.3 | 1.7 | Toxic | 
133 |  |  |  | O=C(c1ccc(N(Cc2ccccc2)Cc2ccco2)cc1)N1CCc2ccc(O)cc2C1 | 0 | 7.7 | 0 | Toxic | 
 |  |  |  | O=C(c1cccc(N(Cc2ccccc2)Cc2ccco2)c1)N1CCc2ccc(O)cc2C1 | 44.9 | 80.7 | 63.3 |  | 
 |  |  |  | CN(CCN1CCCCC1)c1ccc(C(=O)N2CCc3ccc(O)cc3C2)cc1 | 2.1 | 12.2 | 4.6 |  | 
 |  |  |  | CCCN(Cc1ccccc1)c1ccc(C(=O)N2CCc3ccc(O)cc3C2)cc1 | 0 | 8.9 | 0 |  | 
133 |  |  |  | CCN(Cc1ccncc1)c1ccc(C(=O)N2CCc3ccc(O)cc3C2)cc1 | 0 | 0 | 0 | Toxic | 
 |  |  |  | CN(CCCN1CCCCC1)c1ccc(C(=O)N2CCc3ccc(O)cc3C2)cc1 | 0 | 0 | 0 |  | 
 |  |  |  | CN(C)CCCN(Cc1ccccc1)c1cccc(C(=O)N2CCc3ccc(O)cc3C2)c1 | 0 | 5.4 | 0 |  | 
147 |  |  |  | CCN(Cc1ccccn1)c1ccc(C(=O)N2CCc3ccc(O)cc3C2)cc1 | 2.7 | 84 | 0 | 140% | 
 |  |  |  | O=C(c1cccc(N(CCO)Cc2ccccc2)c1)N1CCc2ccc(O)cc2C1 | 0.5 | 12 | 3 |  | 
 |  |  |  | O=C(c1ccc(N(CCO)Cc2ccccc2)cc1)N1CCc2ccc(O)cc2C1 | 8.4 | 34.6 | 14.8 |  | 
133 |  |  |  | CCN(Cc1cccnc1)c1ccc(C(=O)N2CCc3ccc(O)cc3C2)cc1 | 0 | 0 | 2 | Toxic | 
 |  |  |  | CC(C)CCN(CCC(C)C)c1cccc(C(=O)N2CCc3ccc(O)cc3C2)c1 | 0 | 10.6 | 0 |  | 
 | 41.4 | 3.87 | 81.3 | NS(=O)(=O)Oc1ccc2c(c1)CN(C(=O)c1ccc(N3CCC(Cc4ccccc4)CC3)cc1)CC2 |  |  |  |  | 
 |  |  |  | CN(C)CCN(CCN(C)C)c1ccc(C(=O)N2CCc3ccc(O)cc3C2)cc1 | 0 | 4.5 | 0 |  | 
 |  |  |  | CN(C)CCN(Cc1ccccc1)c1ccc(C(=O)N2CCc3ccc(O)cc3C2)cc1 | 9.6 | 4.6 | 6.3 |  | 
 |  |  |  | CCCN(Cc1ccccc1)c1cccc(C(=O)N2CCc3ccc(O)cc3C2)c1 | 1.6 | 20.8 | 0 |  | 
 | 36.6 | 3.07 | 84.7 | CCCN(CCC)c1ccc(C(=O)N2CCc3ccc(OS(N)(=O)=O)cc3C2)cc1 |  |  |  |  | 
 |  |  |  | CCN(Cc1ccc(Br)cc1)c1cccc(C(=O)N2CCc3ccc(O)cc3C2)c1 | 0 | 5.5 | 0 |  | 
 | 66.9 | 3.08 | 83.6 | CCN(Cc1ccccc1)c1ccc(C(=O)N2CCc3ccc(OS(N)(=O)=O)cc3C2)cc1 |  |  |  |  | 
 |  |  |  | CCN(Cc1ccncc1)c1cccc(C(=O)N2CCc3ccc(O)cc3C2)c1 | 6 | 12.8 | 0 |  | 
152 |  |  |  | CCN(Cc1ccc(F)cc1)c1ccc(C(=O)N2CCc3ccc(O)cc3C2)cc1 | 0 | 4.8 | 0 | Toxic | 
133 |  |  |  | CC(C)CCN(CCC(C)C)c1ccc(C(=O)N2CCc3ccc(O)cc3C2)cc1 | 0 | 0 | 0 | Toxic | 
 |  |  |  | O=C(c1ccc(N(CCCO)Cc2ccccc2)cc1)N1CCc2ccc(O)cc2C1 | 0 | 4 | 0 |  | 
143 |  |  |  | CC/C(=C(\c1ccccc1)c1ccc(OCCN(C)C)cc1)c1ccccc1 [TAMOXIFEN] |  |  |  |  | 
148 |  |  |  | C[C@]12CC[C@@H]3c4ccc(O)cc4CC[C@H]3[C@@H]1CC[C@@H]2O [ESTRADIOL] |  |  |  | 144% | 75.6
 |  |  |  | CCN(Cc1ccccn1)c1cccc(C(=O)N2CCc3ccc(O)cc3C2)c1 | 10.6 | 87.3 | 58.4 |  | 
